According to patent US20250368633A1, “AZEPINE FUSED RING COMPOUND AS RIPK1 INHIBITOR AND USE THEREOF” (ARTIVILA BIOPHARMA, priority 2022, published 2025):

Tests used:
RIPK1 kinase = target: T1, RIPK1 kinase (Homo sapiens, UniProt Q13546); test: In vitro RIPK1 kinase activity assay (ADP-Glo), inhibition by compounds at 1 μM; assay type: biochemical; conditions: compound 1 μM; ATP 10 μM; MBP substrate 100 μg/mL; read-out: RIPK1 kinase activity inhibition rate range
T1 construct: purchased Promega VA7593
T1 sequence (Q13546 1-671): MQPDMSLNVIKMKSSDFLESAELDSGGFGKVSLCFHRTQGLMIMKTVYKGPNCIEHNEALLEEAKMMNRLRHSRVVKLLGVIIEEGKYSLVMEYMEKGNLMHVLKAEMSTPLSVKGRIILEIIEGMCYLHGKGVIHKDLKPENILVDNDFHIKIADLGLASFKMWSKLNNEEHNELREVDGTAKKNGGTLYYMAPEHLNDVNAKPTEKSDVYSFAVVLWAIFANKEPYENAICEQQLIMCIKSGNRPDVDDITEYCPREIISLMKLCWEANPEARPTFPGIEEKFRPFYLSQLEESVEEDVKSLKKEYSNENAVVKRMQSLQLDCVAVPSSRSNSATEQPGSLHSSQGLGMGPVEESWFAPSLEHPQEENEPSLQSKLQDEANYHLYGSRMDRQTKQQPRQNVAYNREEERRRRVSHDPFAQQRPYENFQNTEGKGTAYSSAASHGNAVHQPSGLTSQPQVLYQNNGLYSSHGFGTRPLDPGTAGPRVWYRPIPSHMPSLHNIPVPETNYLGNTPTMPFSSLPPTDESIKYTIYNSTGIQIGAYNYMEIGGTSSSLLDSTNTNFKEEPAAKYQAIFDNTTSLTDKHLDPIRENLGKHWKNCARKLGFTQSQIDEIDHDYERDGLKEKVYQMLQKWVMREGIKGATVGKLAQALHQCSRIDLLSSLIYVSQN
Outline: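 Read by ADP-Glo chemiluminescence as percent inhibition: RIPK1 kinase, 15-min room-temperature compound preincubation, then 1-h reaction with MBP (100 μg/mL final) and ATP (10 μM final). Enzyme level was set by titration.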

U937 cells [1] = test: Inhibition rate of compound (1 μM) on necroptosis of U937 cells (TSZ-induced, CellTiter-Glo); assay type: cell-based; conditions: TSZ (hTNF-α, SM-164, Z-VAD-FMK) 20 hours
Outline: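 Percent inhibition comes from ATP luminescence (CellTiter-Glo), referenced to wells without TSZ and wells with TSZ alone. The compound was added to U937 cells 15 min ahead of a TNF-α/SM-164/Z-VAD-FMK mix, followed by 20 h culture at 37° C, 5% CO2.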

U937 cells [2] = test: EC50 of necroptosis inhibition in U937 cells (TSZ-induced, CellTiter-Glo); assay type: cell-based; conditions: Homo sapiens, U-937; TSZ (hTNF-α, SM-164, Z-VAD-FMK) 20 hours; 10 concentration points; read-out: EC50 intervals of necroptosis inhibition in U937 cells
Outline: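 Luminescent ATP readout (CellTiter-Glo) after 20 h gave viability of TSZ-challenged U937 cells; compounds were added 15 min ahead of TNF-α/SM-164/Z-VAD-FMK. EC50 derived by variable-slope nonlinear regression of inhibition relative to no-TSZ and TSZ-alone controls.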

| SMILES | inhibition at 1 µM (RIPK1 kinase) | Inhibition rate range of compounds (1 μM) on U937 cell necroptosis (U937 cells [1]) | EC50 (U937 cells [2]) |
| --- | --- | --- | --- |
| C[C@@H](NC(=O)C(=O)N[C@H]1COc2ccc(C#CCn3ccnc3)cc2N(C)C1=O)c1ccccc1 [Example 134, N^1-((S)-7-(3-(1H-imidazol-1-yl)prop-1-yn-1-yl)-5-methyl-4-oxo-2,3,4,5-tetrahydrobenzo[b][1,4]oxazepin-3-yl)-N^2-((R)-1-phenylethyl)oxalamide] | 50 to 74% | A (A: ≥90%) | < 100 nM |
| C[C@@H](NC(=O)C(=O)N[C@H]1COc2ccc(C#CC3CCNCC3)cc2N(C)C1=O)c1ccccc1 [Example 135, N^1-((S)-5-methyl-4-oxo-7-(piperidin-4-ylethynyl)-2,3,4,5-tetrahydrobenzo[b][1,4]oxazepin-3-yl)-N^2-((R)-1-phenylethyl)oxalamide] | 25 to 49% | A (A: ≥90%) | < 100 nM |
| C[C@@H](NC(=O)C(=O)N[C@H]1COc2ccc(C#CC3CCN(C)CC3)cc2N(C)C1=O)c1ccccc1 [Example 136, N^1-((S)-5-methyl-7-((1-methylpiperidin-4-yl)ethynyl)-4-oxo-2,3,4,5-tetrahydrobenzo[b][1,4]oxazepin-3-yl)-N^2-((R)-1-phenylethyl)oxalamide] | 25 to 49% | A (A: ≥90%) | < 100 nM |
| C[C@@H](NC(=O)C(=O)N[C@H]1COc2ccc(C#CCN3CCNCC3)cc2N(C)C1=O)c1ccccc1 [Example 142, N^1-((S)-5-methyl-4-oxo-7-(3-(piperazin-1-yl)prop-1-yn-1-yl)-2,3,4,5-tetrahydrobenzo[b][1,4]oxazepin-3-yl)-N^2-((R)-1-phenylethyl)oxalamide] | ≥ 75% | A (A: ≥90%) | < 100 nM |
| CC(=O)N1CCN(CC#Cc2ccc3c(c2)N(C)C(=O)[C@@H](NC(=O)C(=O)N[C@H](C)c2ccccc2)CO3)CC1 [Example 143, N^1-((S)-7-(3-(4-acetylpiperazin-1-yl)prop-1-yn-1-yl)-5-methyl-4-oxo-2,3,4,5-tetrahydrobenzo[b][1,4]oxazepin-3-yl)-N^2-((R)-1-phenylethyl)oxalamide] | ≥ 75% | A (A: ≥90%) | < 100 nM |
| C[C@@H](NC(=O)C(=O)N[C@H]1COc2ccc(C#CC3CN(C)C3)cc2N(C)C1=O)c1ccccc1 [Example 147, N^1-((S)-5-methyl-7-((1-methylazetidin-3-yl)ethynyl)-4-oxo-2,3,4,5-tetrahydrobenzo[b][1,4]oxazepin-3-yl)-N^2-((R)-1-phenylethyl)oxalamide] | ≥ 75% | A (A: ≥90%) | < 100 nM |
| C=CC(=O)N1CC(C#Cc2ccc3c(c2)N(C)C(=O)[C@@H](NC(=O)C(=O)N[C@H](C)c2ccccc2)CO3)C1 [Example 149, N^1-((S)-7-((1-acryloylazetidin-3-yl)ethynyl)-5-methyl-4-oxo-2,3,4,5-tetrahydrobenzo[b][1,4]oxazepin-3-yl)-N^2-((R)-1-phenylethyl)oxalamide] | ≥ 75% | A (A: ≥90%) | < 100 nM |
| C[C@@H](NC(=O)C(=O)N[C@H]1COc2ccc(C#CC3CN(N=O)C3)cc2N(C)C1=O)c1ccccc1 [Example 151, N^1-((S)-5-methyl-7-((1-nitrosoazetidin-3-yl)ethynyl)-4-oxo-2,3,4,5-tetrahydrobenzo[b][1,4]oxazepin-3-yl)-N^2-((R)-1-phenylethyl)oxalamide] | 25 to 49% | A (A: ≥90%) | < 100 nM |
| C[C@@H](Cc1ccccc1)NC(=O)C(=O)N[C@H]1COc2ccc(C#CCCO)cc2N(C)C1=O [Example 152, N^1-((S)-7-(4-hydroxybut-1-yn-1-yl)-5-methyl-4-oxo-2,3,4,5-tetrahydrobenzo[b][1,4]oxazepin-3-yl)-N^2-((S)-1-phenylpropan-2-yl)oxalamide] | 50 to 74% | A (A: ≥90%) | 100 to 500 nM |
